How the values were obtained:
[1] = Clearance study, liver microsomes (rats); details: rat, pH 7.4
[2] = Clearance study, liver microsomes (mice); details: mouse, pH 7.4
[3] = Clearance study, liver microsomes (human); details: pH 7.4

microsomal CLint at 1 μM [1] [µL/min/mg] | microsomal CLint at 1 μM [2] [µL/min/mg] | microsomal CLint at 1 μM [3] [µL/min/mg] | SMILES
299 | 348 | 63 | CCCCNC(=O)c1ccc2c(c1)N=C(c1ccc(Br)cn1)c1ccccc1S2 [drawing 1654]
7 | 12 | – | CCCCNC(=O)c1cc2c(cc1O)Sc1ccccc1C(c1ccc(Cl)cc1)=N2 [drawing 1672]
– | 412 | – | CC(C)CNC(=O)c1ccc2c(c1)N=C(c1ccc(Cl)s1)c1ccccc1S2 [drawing 1681]
165 | – | 39 | CC(CNC(=O)c1ccc2c(c1)N=C(c1ccc(Cl)cc1)c1cc(F)ccc1S2)c1ccccc1 (centres unmarked) [drawing 1716]
– | 79 | – | CCCCNC(=O)c1ccc2c(c1)N=C(c1ccc(Cl)cc1)c1sccc1S2 [drawing 1717]
37 | – | 4 | CC(C)CNC(=O)c1ccc2c(c1)N=C(c1ccc(Cl)cc1)c1ccc(Cl)cc1S2 [drawing 1718]
182 | – | 24 | O=C(NCCCC(F)(F)F)c1ccc2c(c1)N=C(c1cccc(F)c1)c1ccccc1S2 [drawing 1719]
40 | – | 18 | O=C(NCCC(F)(F)F)c1ccc2c(c1)N=C(c1cccc(Cl)c1)c1ccccc1S2 [drawing 1721]
725 | – | 113 | Cc1csc(CNC(=O)c2ccc3c(c2)N=C(c2cccc(C)n2)c2ccccc2S3)c1 [drawing 1727]
83 | – | 62 | O=C(NCCc1ccc(Cl)cc1)c1ccc2c(c1)N=C(c1cccc(Cl)c1)c1ccccc1S2 [drawing 1739]
179 | – | 62 | CC(CNC(=O)c1ccc2c(c1)N=C(c1ccc(Cl)cc1)c1ccccc1S2)c1ccccc1 (centres unmarked) [drawing 1743]
144 | – | 62 | O=C(NCCc1ccccc1)c1ccc2c(c1)N=C(c1ccc(Cl)cc1)c1ccccc1S2 [drawing 1745]
175 | – | 25 | CC(C)CNC(=O)c1ccc2c(c1)N=C(c1ccc(Cl)cn1)c1ccc(F)cc1S2 [drawing 1746]
131 | – | 57 | CCCCNC(=O)c1ccc2c(c1)N=C(c1ccc(Cl)cn1)c1cc(F)ccc1S2 [drawing 1748]
484 | – | 278 | CCN(CCNC(=O)c1ccc2c(c1)N=C(c1ccc(F)cc1)c1ccccc1S2)c1ccccc1 [drawing 1749]
52 | – | 13 | CCCCNC(=O)c1ccc2c(c1)N=C(c1cccc(Cl)c1)c1cc(Cl)ccc1S2 [drawing 1750]

microsomal CLint at 1 μM [1] [µL/min/mg] | microsomal CLint at 1 μM [2] [µL/min/mg] | microsomal CLint at 1 μM [3] [µL/min/mg] | SMILES
427 | – | 546 | CC(C)CNC(=O)c1ccc2c(c1)N=C(c1ccsc1)c1ccccc1S2 [drawing 1753]
174 | – | 56 | CC(CNC(=O)c1ccc2c(c1)N=C(c1cccc(Cl)c1)c1ccccc1S2)c1ccccc1 (centres unmarked) [drawing 1755]
163 | – | 72 | O=C(NCCCc1ccccc1)c1ccc2c(c1)N=C(c1cccc(Cl)c1)c1ccccc1S2 [drawing 1765]
116 | – | 56 | O=C(NCCc1cccc(Cl)c1)c1ccc2c(c1)N=C(c1ccc(Cl)cc1)c1ccccc1S2 [drawing 1766]
126 | – | 37 | O=C(NCCc1cccc(Cl)c1)c1ccc2c(c1)N=C(c1ccc(F)cc1)c1ccccc1S2 [drawing 1768]
274 | – | 109 | O=C(NCCc1ccccc1)c1ccc2c(c1)N=C(c1ccc(F)cc1)c1ccccc1S2 [drawing 1773]
227 | – | 29 | CCCCNC(=O)c1ccc2c(c1)N=C(c1ccc(Cl)cn1)c1ccc(F)cc1S2 [drawing 1778]
– | 68 | – | CC(C)CCNC(=O)c1ccc2c(c1)N=C(c1ccccn1)c1ccccc1S2 [drawing 1784]
177 | – | 123 | COc1ccc(C2=Nc3cc(C(=O)NCCC(C)C)ccc3Sc3ccccc32)cc1 [drawing 1785]
242 | – | 73 | O=C(NCc1ccc(F)cc1)c1ccc2c(c1)N=C(c1ccccc1)c1ccccc1S2 [drawing 1787]
632 | – | 114 | Cc1cccc(C2=Nc3cc(C(=O)NCc4ccc(C)o4)ccc3Sc3ccccc32)n1 [drawing 1789]
49 | – | 32 | CC(C)CNC(=O)c1ccc2c(c1)N=C(c1ccc(Cl)s1)c1ccc(F)cc1S2 [drawing 1793]
208 | – | 100 | O=C(NCCc1ccc(Cl)cc1)c1ccc2c(c1)N=C(c1ccc(F)cc1)c1ccccc1S2 [drawing 1799]
61 | – | 10 | O=C(NCc1cccc(Cl)c1)c1ccc2c(c1)N=C(c1cccc(Cl)c1)c1cc(F)ccc1S2 [drawing 1805]
135 | – | 13 | CC(C)CNC(=O)c1ccc2c(c1)N=C(c1ccc(Cl)cn1)c1ccc(Cl)cc1S2 [drawing 1806]
122 | – | 54 | O=C(NCCc1ccc(Cl)cc1)c1ccc2c(c1)N=C(c1ccc(Cl)cc1)c1ccccc1S2 [drawing 1807]

More lines, now with the values behind:

SMILES | microsomal CLint at 1 μM [1] [µL/min/mg] | microsomal CLint at 1 μM [2] [µL/min/mg] | microsomal CLint at 1 μM [3] [µL/min/mg]
O=C(NCc1ccccc1)c1ccc2c(c1)N=C(c1cccc(Br)c1)c1ccccc1S2 | 69 | 566 | 4
O=C(NCc1ccco1)c1ccc2c(c1)N=C(c1ccc(Cl)s1)c1ccccc1S2 [drawing 1656] | 98 | 127 | 42
CCCCNC(=O)c1ccc2c(c1)N=C(c1ccc(Cl)cc1)c1ccccc1S2 [drawing 1661] | – | 99 | –
O=C(NN1CCCCC1)c1ccc2c(c1)N=C(C1CCCCC1)c1ccccc1S2 [drawing 1695] | – | 349 | –
O=C(NCc1cccc(Cl)c1)c1ccc2c(c1)N=C(N1CCC(F)CC1)c1ccccc1S2 [drawing 1714] | 477 | – | 96
CCCCNC(=O)c1cnc2c(n1)N=C(c1ccccc1)c1ccccc1S2 [drawing 1722] | 44 | – | 38
CCOC(=O)N1CCC(NC(=O)c2ccc3c(c2)N=C(c2ccc(Cl)cc2)c2ccccc2S3)CC1 [drawing 1726] | 89 | – | 88
O=C(NCc1cccc(Cl)c1)c1ccc2c(c1)N=C(c1cccc(Cl)c1)c1ccccc1S2 [drawing 1729] | 74 | – | 36
O=C(NCCc1ccc(Cl)cc1)c1ccc2c(c1)N=C(N1CCC(F)CC1)c1ccccc1S2 [drawing 1734] | 670 | – | 476
O=C(NCCc1ccc(Cl)cc1)c1ccc2c(c1)N=C(C1CCCCC1)c1ccccc1S2 [drawing 1737] | 230 | – | 138
O=C(NCc1ccc(F)cc1)c1ccc2c(c1)N=C(N1CCCCC1)c1ccccc1S2 [drawing 1738] | 735 | – | 255
CCN(CCNC(=O)c1ccc2c(c1)N=C(C1CCCCC1)c1ccccc1S2)c1ccccc1 [drawing 1747] | 379 | – | 249
CC(CNC(=O)c1ccc2c(c1)N=C(C1CCCCC1)c1ccccc1S2)c1ccccc1 (centres unmarked) [drawing 1769] | 267 | – | 125
O=C(NCc1cccc(Cl)c1)c1ccc2c(c1)N=C(N1CCCCC1)c1ccccc1[S+]2[O-] (centres unmarked) [drawing 1774] | 416 | – | 90
O=C(NCc1ccc(F)cc1)c1ccc2c(c1)N=C(c1ccc(Cl)cc1)c1ccccc1S2(=O)=O [drawing 1776] | 17 | – | 13
O=C(NCc1cccc(Cl)c1)c1ccc2c(c1)N=C(C1CCCCC1)c1ccccc1S2 [drawing 1777] | 458 | – | 70
O=C(NCc1ccccc1)c1ccc2c(c1)N=C(C1CCCCC1)c1ccccc1S2 [drawing 1779] | 351 | – | 81
O=C(NCc1ccccc1Cl)c1ccc2c(c1)N=C(c1ccccc1)c1ccccc1S2 [drawing 1780] | 178 | – | 57
O=C(NCCc1ccc(Cl)cc1)c1ccc2c(c1)N=C(N1CCCCC1)c1ccccc1S2 [drawing 1783] | 506 | – | 434
O=C(NCc1ccccc1Br)c1ccc2c(c1)N=C(c1ccc(Cl)cc1)c1ccccc1S2 [drawing 1788] | 36 | – | 10
O=C(NCc1cccc(Cl)c1)c1ccc2c(c1)N=C(c1ccc(F)cc1)c1ccccc1[S+]2[O-] (centres unmarked) [drawing 1790] | 76 | – | 24
O=C(NN1CCCCC1)c1ccc2c(c1)N=C(N1CCCCC1)c1ccccc1S2 [drawing 1792] | 536 | – | 54
CC(C)CNC(=O)c1ccc2c(c1)N=C(c1cccc(Cl)c1)c1ccccc1S2 [drawing 1795] | – | 69 | –
O=C(NCc1ccc(Cl)cc1Cl)c1ccc2c(c1)N=C(c1ccc(Cl)cc1)c1ccccc1S2 [drawing 1796] | 5 | – | 1
O=C(NCc1cccc(Cl)c1)c1ccc2c(c1)N=C(N1CCC(F)(F)CC1)c1ccccc1S2 [drawing 1800] | – | 120 | –
O=C(NCCc1ccc(Cl)cc1)c1ccc2c(c1)N=C(N1CCC(F)(F)CC1)c1ccccc1S2 [drawing 1802] | 289 | – | 343
CC(NC(=O)c1ccc2c(c1)N=C(c1ccc(Cl)cc1)c1ccccc1S2)c1ccccc1 (centres unmarked) [drawing 1804] | 62 | – | 18
Cc1ccc(N2CCN(C(=O)c3ccc4c(c3)N=C(c3ccc(Cl)cc3)c3ccccc3S4)CC2)c(C)c1 [drawing 1808] | 39 | – | 37
